Peptide text beside a SMILES is read from it.
Tests used:
[1] = system: β1EC2-specific memory B-cells; assay: Flow cytometric detection of β1EC2-specific memory B-cells; type: in vivo, Lewis/CrlBR rats; conditions: Fig. 5K and L
Method: (c) For flow cytometric detection of β 1 EC2-specific memory B-cells, splenocytes (1.5x10^8 cells per staining, 2x10^7 cells/ ml in PBS/0.1% BSA/0.02% NaN3) were first labelled with anti-rat IgG(Fc) PE (Jackson Immunoresearch, West Grove, USA) followed by three washings and a blocking step using normal rat serum plus GST (1:500 and 2 μg/ ml, respectively). After another washing step, OX-33 FITC (BD, Heidelberg, Germany, 0.1 μg/ml) and DyLight649-labelled GST/β1EC2-FP (0.2 μg/ml) were added. All incubations were carried out for 15 min on ice and in the dark. Finally, the cells were washed three times and analysed on a FACS-Calibur (BD, Heidelberg, Germany) and FlowJo Software (Tree Star, Ashland, USA) was used to analyse the data.
Fig 5 Immunology of cyclic β1EC2-peptides: fate of β1EC2-specific T- and B-cells. (A) Titer-course of anti-β1EC2-abs in β1EC2-CP-treated rats during the first 6 months of the prevention-study before and 24h after cyclopeptide-injection. Time-points of antigen-boosts are indicated by (red) lines, time-points of CP-injections by (green) arrows. For better readability error-bars are not shown in the graph. (B) Pre-experiments (antigenic recall-assays) performed with CD4^+ T-cells prepared from spleens of GST/β1EC2 fusion-protein (FP)-immunised untreated (n = 3, black) vs. 0.9%NaCl-injected control rats (n = 3, white). […]

CD4+ T-cells = assay: Recall-assay with splenic CD4+ T-cells; type: cell-based, Lewis/CrlBR rats; conditions: 1.0 μg/ml β1EC2-CP; T-cells from spleens of treated and untreated rats; [3H]-thymidine (Fig. 5B-D)
Method: (a) Recall-assays with T-cells from spleens of immunised untreated vs. β1EC2-CP-treated animals were conducted as described in [60]. In brief, to purify CD4^+ T-cells from the splenic cell preparations, B-cells and CD8^+ T-cells were depleted by commercially available magnetic beads (MACS, Miltenyi Biotec, Bergisch-Gladbach, Germany) yielding a purity >85%. 1x10^5 of the purified CD4^+ T-cells were then co-incubated in 96-well plates with 1x10^6 irradiated thymic antigen presenting cells (prepared from a younger rat). Reagents added in the different assays were 1.0 μg/ml β1EC2-CP, 1.0 μg/ml tuberculin purified protein derivative (PPD, internal control), 1.0 μg/ml glutathion-S-transferase (GST), as well as 1.0 and 0.1 μg/ml GST/β1EC2-fusion proteins (FP), respectively. Measured T-cell reactivities were normalised to medium. After 48 h of incubation the cells were pulsed with 1.25 μCi/well [^3H]-thymidine and further incubated for 16 h before the cells were harvested; the DNA-incorporated radioactivity was measured using a beta-plate counter.
Fig 5 Immunology of cyclic β1EC2-peptides: fate of β1EC2-specific T- and B-cells. (A) Titer-course of anti-β1EC2-abs in β1EC2-CP-treated rats during the first 6 months of the prevention-study before and 24h after cyclopeptide-injection. […] For better readability error-bars are not shown in the graph. […]

heart rate = assay: Bisoprolol titration pre-experiments, heart rate; type: in vivo, Lewis/CrlBR rats
Method: In brief, n = 76 two months old Lewis/CrlBR rats were either s.c. immunised with 50 μg β1EC2/GST-FP, or n = 38 rats were control-injected with 0.9% NaCl (t = 0). To maintain high anti-β1EC2-titers, all immunised rats were boosted with β1EC2/GST-FP (or 0.9% NaCl) every month over 20 months as previously described. Application of the different linear or cyclic β1-AR peptides (corresponding to the primary AA-sequence of either the first (β1EC1) or the 2nd extra-cellular β1-AR loop (β1EC2)) or the β1-receptor blocker bisoprolol was initiated either 6 weeks after the 1st immunisation (i.e. 15 days after the 1st boost, prevention-study), or 8.5 months after the 1st immunisation (therapy-study).

Compound	β1EC2-specific memory B-cells by flow cytometry, in words [1]	in vitro recall response of purified CD4+ T-cells, in words (CD4+ T-cells)	decrease of heart rate (heart rate; oral dose 15 mg/kg/day derived from titration pre-experiments [5/10/15mg])	heart rate after bisoprolol (heart rate; titration pre-experiments [5/10/15mg], 15mg oral, from 236±10 bpm, n = 5, p<0.005)
CC(C)[C@@H]1NC(=O)[C@H](Cc2ccccc2)NC(=O)[C@H](CC(=O)O)NC(=O)[C@H](CS)NC(=O)[C@H](CS)NC(=O)[C@H](CCCCN)NC(=O)[C@@H]2CCCN2C(=O)[C@H](CC(=O)O)NC(=O)[C@H](CC(N)=O)NC(=O)[C@H](Cc2ccc(O)cc2)NC(=O)[C@H](CS)NC(=O)[C@H](CCCNC(=N)N)NC(=O)[C@H](CCCNC(=N)N)NC(=O)[C@H](C)NC(=O)[C@H](CCC(=O)O)NC(=O)[C@H](CC(=O)O)NC(=O)[C@H](CO)NC(=O)[C@H](CCC(=O)O)NC(=O)[C@H](C)NC(=O)[C@H](CCCNC(=N)N)NC(=O)[C@H](C)NC(=O)[C@H](CCC(N)=O)NC(=O)CNC(=O)[C@H](CCCNC(=N)N)NC(=O)[C@H](CC(N)=O)NC(=O)[C@H]([C@@H](C)O)NC1=O [β1EC2-CP] (cyclo(AESDEARRCYNDPKCCDFVTNRGQAR))	complete depletion	clearly responded to the FP but not to β1EC2-CP		
CC(C)NCC(O)COc1ccc(COCCOC(C)C)cc1 (stereo not shown) [bisoprolol, reference compound]			at least 10%	205±9 bpm
